Laboratory results: PubChem BioAssay (NCI)
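Test compounds were applied to cells in 96-well plates for 48 hours at 5 doses. GI50 marks 50% less growth. TGI marks complete inhibition of growth.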

Tests used:
Experiment in all cases: NCI tumour cell line growth inhibition, 48 h
[1] = test system: A498 renal
[2] = test system: CAKI-1 renal
[3] = test system: COLO 205 colon
[4] = test system: HCC-2998 colon
[5] = test system: IGROV1 ovarian
[6] = test system: MOLT-4 leukemia
[7] = test system: OVCAR-4 ovarian
[8] = test system: OVCAR-5 ovarian
[9] = test system: SK-MEL-2 melanoma
[10] = test system: TK-10 renal

Structure (SMILES): FC(F)(F)c1ccc(-c2cnc(Cl)nc2NCc2cc(C(F)(F)F)cc(C(F)(F)F)c2)cc1
- GI50 [1]: 1.97 µM
- TGI [1]: 6.87 µM
- GI50 [2]: 2.1 µM
- TGI [2]: 7.52 µM
- GI50 [3]: 1.88 µM
- TGI [3]: 3.43 µM
- GI50 [4]: 3.82 µM
- TGI [4]: > 100 µM
- GI50 [5]: 7.87 µM
- TGI [5]: > 100 µM
- GI50 [6]: 3.94 µM
- TGI [6]: > 100 µM
- GI50 [7]: 2.94 µM
- TGI [7]: > 100 µM
- GI50 [8]: 4.52 µM
- TGI [8]: > 100 µM
- GI50 [9]: 2.35 µM
- TGI [9]: 5.28 µM
- GI50 [10]: 3.16 µM
- TGI [10]: > 100 µM

Structure (SMILES): Nc1n[nH]c2ccc([C@@H]3Nc4ccc5[nH]ncc5c4[C@H]4C5C=CC(C5)[C@@H]34)cc12 (stereo not given in full)
- GI50 [1]: 0.0876 µM
- TGI [1]: 0.492 µM
- GI50 [2]: 0.23 µM
- TGI [2]: 21.6 µM
- GI50 [3]: 0.332 µM
- TGI [3]: 1.83 µM
- GI50 [4]: 0.378 µM
- TGI [4]: 12.1 µM
- GI50 [5]: 0.497 µM
- TGI [5]: 24.9 µM
- GI50 [6]: 0.433 µM
- TGI [6]: 40.7 µM
- GI50 [7]: 1.76 µM
- TGI [7]: > 90.7 µM
- GI50 [8]: 0.586 µM
- TGI [8]: 30.3 µM
- GI50 [9]: 4.14 µM
- TGI [9]: 28 µM
- GI50 [10]: 12 µM
- TGI [10]: > 100 µM

Structure (SMILES): O=c1[nH]c(-c2ccc(-c3nc4cc([N+](=O)[O-])ccc4c(=O)[nH]3)cc2)nc2cc([N+](=O)[O-])ccc12
- TGI [1]: 31.3 µM
- TGI [2]: > 100 µM
- TGI [3]: > 100 µM
- TGI [4]: > 100 µM
- TGI [5]: > 100 µM
- TGI [6]: > 100 µM
- TGI [7]: > 100 µM
- TGI [8]: > 100 µM
- TGI [9]: > 100 µM
- TGI [10]: > 100 µM

Structure (SMILES): O=C1CCC2(c3ccccc3)Nc3ncccc3N12 (stereo not given)
- TGI [1]: > 100 µM
- TGI [2]: > 100 µM
- TGI [3]: > 100 µM
- TGI [4]: > 100 µM
- TGI [5]: > 100 µM
- TGI [6]: > 100 µM
- TGI [7]: > 100 µM
- TGI [8]: > 100 µM
- TGI [9]: > 100 µM
- TGI [10]: > 100 µM

Structure (SMILES): CC(C)c1ccc(Nc2nccc(-c3cnn4ncccc34)n2)cc1
- GI50 [1]: 0.542 µM
- TGI [1]: 1.48 µM
- GI50 [2]: 0.8 µM
- TGI [2]: > 15.4 µM
- GI50 [3]: 0.306 µM
- TGI [3]: 0.704 µM
- GI50 [4]: 0.635 µM
- TGI [4]: > 10.2 µM
- GI50 [5]: 0.502 µM
- TGI [5]: > 19.5 µM
- GI50 [6]: 0.888 µM
- TGI [6]: 4.19 µM
- GI50 [7]: 0.604 µM
- TGI [7]: 2.63 µM
- GI50 [8]: 0.44 µM
- TGI [8]: > 12.3 µM
- GI50 [9]: 0.411 µM
- TGI [9]: 1.13 µM
- GI50 [10]: 0.59 µM
- TGI [10]: 3.17 µM

Structure (SMILES): CC12CC(OC(=O)[C@]1(C)O)[C@@H]([C@]1(O)CC[C@H]3[C@@H]4C[C@H]5O[C@]56[C@@H](O)C=CC(=O)[C@]6(C)[C@H]4CC[C@@]31C)C2 (stereo not given in full)
- TGI [1]: 33.2 µM
- TGI [2]: 24.9 µM
- TGI [3]: 10.7 µM
- TGI [4]: 36.4 µM
- TGI [5]: 35.1 µM
- TGI [6]: 10.1 µM
- TGI [7]: 24.4 µM
- TGI [8]: 25.2 µM
- TGI [9]: 21 µM
- TGI [10]: 20.2 µM

Structure (SMILES): O=C1NC2C=CN(Cc3ccccc3)C=C2C(=O)N2CCCC12 (stereo not given)
- TGI [1]: > 100 µM
- TGI [2]: > 100 µM
- TGI [3]: > 100 µM
- TGI [4]: > 100 µM
- TGI [5]: > 100 µM
- TGI [6]: > 100 µM
- TGI [7]: > 100 µM
- TGI [8]: > 100 µM
- TGI [9]: > 100 µM
- TGI [10]: > 100 µM

Structure (SMILES): COCCNc1cc(NC(=O)N2CCCc3cc(CN4CCN(C)CC4=O)c(C=O)nc32)ncc1C#N
- GI50 [1]: > 50 µM
- TGI [1]: > 50 µM
- GI50 [2]: > 50 µM
- TGI [2]: > 50 µM
- GI50 [3]: 27.2 µM
- TGI [3]: > 50 µM
- GI50 [4]: > 50 µM
- TGI [4]: > 50 µM
- GI50 [5]: > 50 µM
- TGI [5]: > 50 µM
- GI50 [6]: > 50 µM
- TGI [6]: > 50 µM
- GI50 [7]: > 50 µM
- TGI [7]: > 50 µM
- GI50 [8]: > 50 µM
- TGI [8]: > 50 µM
- GI50 [9]: 36.6 µM
- TGI [9]: > 50 µM
- GI50 [10]: > 50 µM
- TGI [10]: > 50 µM

Structure (SMILES): COc1ccc(/C=C2\CCC(CN(C)C)C2=O)cc1OC (stereo not given)
- TGI [1]: 27.8 µM
- TGI [2]: 10 µM
- TGI [3]: 10.6 µM
- TGI [4]: 14.5 µM
- TGI [5]: 33.1 µM
- TGI [6]: 7.35 µM
- TGI [7]: 18.4 µM
- TGI [8]: 29.8 µM
- TGI [9]: 26.9 µM
- TGI [10]: 18.7 µM

Structure (SMILES): COC(=O)C(F)C(Br)C(=O)OC (stereo not given)
- TGI [1]: 43.9 µM
- TGI [2]: 5.17 µM
- TGI [3]: 3.46 µM
- TGI [4]: 21 µM
- TGI [5]: > 20.5 µM
- TGI [6]: 3.01 µM
- TGI [7]: 19.8 µM
- TGI [8]: 31.8 µM
- TGI [9]: 32.6 µM
- TGI [10]: 5.37 µM

Structure (SMILES): O=C(OCCBr)c1ccc(Cl)c([N+](=O)[O-])c1
- GI50 [1]: 17.7 µM
- TGI [1]: 42.4 µM
- GI50 [2]: 7.78 µM
- TGI [2]: 23.1 µM
- GI50 [3]: 16.8 µM
- TGI [3]: 31.5 µM
- GI50 [4]: 1.91 µM
- TGI [4]: 3.67 µM
- GI50 [5]: 16.5 µM
- TGI [5]: 37.6 µM
- GI50 [6]: 23.7 µM
- TGI [6]: 55.3 µM
- GI50 [7]: 10.2 µM
- TGI [7]: 23 µM
- GI50 [8]: 18 µM
- TGI [8]: 34.5 µM
- GI50 [9]: 16.3 µM
- TGI [9]: 35.1 µM
- GI50 [10]: > 51.1 µM
- TGI [10]: > 86.8 µM

Structure (SMILES): O=C(CN1CCN(c2ccccc2)CC1)N1CCN(c2nnc(-c3ccc(Cl)cc3)c(-c3ccc(Cl)cc3)n2)CC1
- GI50 [1]: 9.67 µM
- TGI [1]: 78 µM
- GI50 [2]: 13.5 µM
- TGI [2]: > 100 µM
- GI50 [3]: 3.61 µM
- TGI [3]: 27.7 µM
- GI50 [4]: 16.9 µM
- TGI [4]: > 100 µM
- GI50 [5]: 6.5 µM
- TGI [5]: 40.8 µM
- GI50 [6]: 1.63 µM
- TGI [6]: 9.97 µM
- GI50 [7]: 11 µM
- TGI [7]: > 100 µM
- GI50 [8]: > 100 µM
- TGI [8]: > 100 µM
- GI50 [9]: 12.4 µM
- TGI [9]: 42.2 µM
- GI50 [10]: 5.97 µM
- TGI [10]: > 100 µM
